Results as given in paper PMC4721142, “Randomized controlled studies on the efficacy of antiarthritic agents in inhibiting cartilage degeneration and pain associated with progression of osteoarthritis in the rat” (Arthritis Research & Therapy, 2016).
“And” between values parts separate entries of the source, which are not always exact repeats. Equal values may be shown once.

Key:
RAW 264.7 cells = assay: RANKL-mediated osteoclastogenesis / matrix resorption (Osteologic) assay; type: cell-based, murine
Experimental: RAW 264.7 cells (American Type Culture Collection [ATCC], Manassas, VA, USA), a murine monocytic cell line that differentiates in the presence of RANKL, was used for measurements of osteoclastogenesis and osteoclast activity. Cells were amplified on nonadherent culture substratum in high-glucose Dulbecco’s modified Eagle’s medium (DMEM) containing 10 % fetal bovine serum (FBS) and penicillin-streptomycin in a 37 °C, 5 % CO2, humidified incubator and were passaged by manual dissociation. […] Plates were subsequently rinsed, bleached, dried, and analyzed for matrix degradation using a Nikon COOLSCOPE (Nikon Instruments, Melville, NY, USA). Matrix resorption was quantified using EclipseNet (Nikon Instruments)/Visiopharm (Visiopharm, Hørsholm, Denmark) software (see Additional file 1).
In Vitro Osteoclastogenesis
Osteoclastogenic activity was measured using BD osteologic plates and quantitation of the degree of bone matrix digestion on the plate surface. Images from the BD Osteologic assay used to […]
left pane depicts an example of a control well after removal of cells from matrix. Pseudocoloring of matrix (blue) and pits (green) is shown in the far right pane. A transparent overlay of the two images is shown in the center.
Figure 5 - Measurement of drug effects on osteoclastogenesis and osteoclast activity.
Comparisons were made between RANKL treated control wells and wells treated with both RANKL and […]
Agents were initially tested either during differentiation or post differentiation in the bone assay […]
(e.g., Figure 2, Sulfazalazine). […]
indicated (*/**: p < 0.05/0.01, unpaired t-test versus RANKL control). […]

IKK-2 = conditions: reported; cited from earlier work
[1] = tested on: Normal human articular chondrocytes; assay: Cytotoxicity to chondrogenic pellets (CellTiter-Blue)
Experimental: Differentiated chondrogenic pellets were used both to test the ability of drugs to block MMP-13 activity and to test for drug toxicity. […] Supernatants were collected and analyzed for MMP-13 using an enzyme-linked immunosorbent assay (GE Healthcare Life Sciences, Little Chalfont, UK). Cytotoxicity to pellets was assessed using CellTiter-Blue (Promega).

HeLa cells = assay: HeLa cell viability (CellTiter-Glo)
Experimental: (§1) NF-κB activity was assessed using a previously described dual plasmid reporter system. HeLa cells were transfected with NF-κB luciferase (Stratagene Products Division, Agilent Technologies, La Jolla, CA, USA) and pRLuc-N3 (PerkinElmer, Waltham, MA, USA) at an 8:1 ratio, respectively, in triplicate. […] NF-κB activity was measured 5 h later with a Dual-Glo Luciferase Assay (Promega, Madison, WI, USA) and an Omni plate reader (BMG Labtech, Cary, NC, USA). The ratio of firefly luciferase luminescence (NF-κB reporter) to Renilla luciferase luminescence (control) was normalized for the number of viable transfected cells. Data are reported as a ratio of activity of viable treated cells over the activity of cells not exposed to TNF-α or drug (fold stimulation above basal untreated levels of activity). The viability of HeLa cells with and without drug was also measured using a CellTiter-Glo luminescent viability assay (Promega).
In Vitro Hela Cell Drug Toxicity Testing
Potential drug toxicity was measured using a CTG assay and HeLa cells (Promega). Drugs not tested in
this assay were tested in either of the in vitro toxicity assays already presented (synovial or chondrocyte
Table 3- Drug toxicity measured using a CTG assay and HeLa cells.

[2] = Comparison of in vitro screens: overlapping effective and nontoxic range;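 note: compares non-toxic ranges in synovial cells and chondrocytes with effective ranges against NFkB, MMP-13 and osteoclasts, giving their overlap as the predicted efficacy range in uM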
NF-κB [3] = assay: TNF-α-stimulated NF-κB dual luciferase reporter assay in HeLa cells; type: cell-based
Experimental: as §1, with “(Promega). […]” for “(Promega).”
NF-κB activity was assessed in HeLa cells that were transiently transfected with two reporter constructs as described in the manuscript. Agents were tested for their ability to block TNF- […]
Expression of the luciferase from the Renilla construct was used as a measure of viability, which was confirmed with a cytotoxicity assay (see later section).

SW982 = assay: Synovial toxicity (CellTiter-Glo), with or without TNF-α
Experimental: Viability was measured with the CellTiter-Glo luminescent viability assay (Promega). […] To more accurately predict the effects of the drugs on osteoarthritic synovium, cells were tested with or without TNF-α (20 ng/ml; BioSource).
In Vitro Toxicity Testing with a Synovial Cell Line
Compounds were tested for synovial toxicity using SW982 cells alone or in the presence of TNF as

MMP-13 = MMP-13 ELISA on supernatants of TNF-α-treated chondrogenic pellets; type: cell-based, human
MIA rat model of OA = assay: MIA trial 1 weight bearing (daily s.c. clonidine 0.1, fluocinolone 0.002, morphine 6 mg/kg); type: in vivo
Experimental: (§2) Weight bearing (WB; incapacitance) was measured five times per day, once per week, using a Linton incapacitance meter (Stoelting Co., Wood Dale, IL, USA). Rats were acclimated to the meter before study initiation, and, similarly, immediately before WB, the animals were placed in the meter and allowed to acclimate for 2–5 minutes. Each hind paw was placed on a separate force plate so that the force exerted by each side could be averaged over a 5-second interval, and the mean of three readings was taken for each data point. Right paw force was compared with that on the left side for each group to confirm that animals were displaying incapacitance and/or pain behavior. Differences in force (left minus right) and right paw force as a percentage of the total force exerted by both paws were determined and compared between groups.
Following isoflurane anesthesia, 50 μl (2 mg) of MIA was injected into the synovial space of the left knee. Animals were randomly assigned to groups, and pain behavior was assessed 7, 14, 21, and 28 days following MIA injection and intervention using WB with the Stoelting incapacitance meter (trial 1) or the dRS test (trials 2 and 3). […] Animals received MIA treatment and then saline control or therapeutic. […] Histopathology was performed at each time point and at study termination. All studies were conducted in accordance with the International Association for the Study of Pain Guidelines and were approved by the Algos Therapeutics, Inc. Institutional Animal Care and Use Committee (IACUC) before initiation. Those running the studies were blind to the treatments. See Additional file 1 for further details. […]
dosing were housed three per cage. Animals had free access to food and water and were maintained […]
The animal colony was maintained at approximately 21 °C. All experiments were conducted in accordance with the International Association for the Study of Pain Guidelines.

MMT/MCLT rat model of OA [4] = assay: MMT/MCLT trial 1 weight bearing (daily morphine 10 mg/kg, tacrolimus 0.3 or 0.6 mg/kg, fluocinolone 5 or 10 μg/kg, clonidine 100 μg/kg, alendronate 10 μg/kg i.p.; curcumin, withaferin 50 mg/kg p.o.); type: in vivo; conditions: low or only dose
Experimental: as §2
Following isoflurane anesthesia, the medial collateral ligament was transected just below its attachment to the meniscus in the right knee. The meniscus was cut at its narrowest point away from the ossicles so as not to damage the tibial surface and to ensure that the anterior and posterior meniscus halves were freely movable. […] In trial 2, drugs were administered IA weekly beginning 1 week following surgery. Three weeks postsurgery, animals were humanely killed and their right knees were collected for histopathology. All studies were conducted in accordance with the International Association for the Study of Pain Guidelines and were approved by the Bolder BioPATH IACUC (Boulder, CO, USA) in compliance with regulations before study initiation (IACUC protocol BBP03-006). Those running the studies were blinded to the treatments. See Additional file 1 for further details.
Isoflurane and the right knee area prepared for surgery. A skin incision was made over the medial aspect of the knee and the medial collateral ligament was exposed by blunt dissection and then transected. The medial meniscus was cut through the full thickness to simulate a complete tear and the skin was then closed with suture.
All pharmaceutical agents were prepared and stored as recommended by the supplier. Daily drug preparations were made fresh from stock solutions. […]
In Trial 2 drugs were […]
administered IA weekly beginning one week following surgery. […]
were delivered by gavage and were prepared in 0.3% Methyl Cellulose.
WB was measured five times a day, once a week, using a Linton incapacitance meter (Stoelting Co.) to assess pain behavior. Rats were acclimated to the incapacitance meter prior to study initiation.
Similarly, immediately prior to WB animals were placed in the incapacitance meter and allowed to acclimate for 2-5 minutes. Each hind paw was placed on a separate force plate so that the force exerted by each side could be averaged over a 5 second interval and the mean of three readings taken for each data point. Right paw force was compared to left for each group to confirm that animals were displaying incapacitance / pain behavior. Difference in force (left minus right) and right paw force as a percentage of the total force exerted by both paws were determined and compared between groups. Three weeks after surgery, animals were humanely euthanized and right knees collected for histopathology evaluation.
Figure 2. MMT/MCLT Trial Timeline […]
MMT/MCLT Dosing (once/day)
The study design and animal usage was approved by Bolder BioPATH’s Institutional Animal Care and Use Committee (IACUC) for compliance with regulations prior to study initiation (IACUC […]
Labs. Animals were identified by a distinct mark at the base of the tail delineating group and animal number. After randomization, all cages were labeled with protocol number, group numbers, and animal numbers with appropriate color-coding (see protocol).

MMT/MCLT rat model of OA [5] = assay: MMT/MCLT trial 1 histopathology (same doses); type: in vivo; conditions: low or only dose
From the text: For MMT/MCLT rat knee joints, sections were cut in 200-μm steps; stained with toluidine blue (also with a right and left half per section); and similarly analyzed for cartilage degeneration, proteoglycan loss, collagen damage, and osteophyte formation. Results were averaged across the three sections for an overall semiquantitative score. Regional differences across the tibial plateau were taken into consideration by dividing each section into three zones delineated using an ocular micrometer (outside, middle, and inside). Scores were based on the percentage of area affected within the zone.
Cartilage degeneration in the tibia was scored on a 5-point scale as detailed in the Methods section of Additional file 1. The total extent of degeneration of the tibial plateau was measured (in micrometers) and included an analysis of cell loss, proteoglycan loss, and collagen damage. Significant cartilage degeneration reflecting any degeneration extending through more than 50 % of the cartilage thickness was also measured. Collagen damage across the medial tibial plateau (the most severely affected section of the two halves) was also quantified.
Osteophytes and femoral cartilage degeneration were analyzed as detailed in Additional file 1. Scoring of the osteophytes and categorization into small, medium, and large was performed using an ocular micrometer. The actual osteophyte measurement (tidemark to farthest distance point extending toward the synovium) was also recorded. The femoral cartilage degeneration score and the three-zone sum of the tibial cartilage degeneration scores (mean of three levels) were summed to create a total cartilage degeneration score. The mean osteophyte score for each joint was added to this value to create a total joint score. […]
Histopathology MMT/MCLT Model

NF-κB [6] = conditions: cited from earlier work

NC(=O)Nc1sc(-c2ccccc2)cc1C(N)=O [IKK inhibitor VI, (5-Phenyl-2-ureido)thiophene-3-carboxamide]
Effective range against Osteoclasts (RAW 264.7 cells): ≥ 0.5 µM | IC50 (IKK-2): 13 to 18 nM | Non-toxic range (Chondrocyte) [1]: 0.23 to 15.6 µM | Non-toxic concentrations (HeLa cells): 0 to 0.9 M | Toxic concentrations (p<0.05) (HeLa cells): 1.9 to 3.83 µM | Non-toxic & predicted range of efficacy [2]: 0.95 to 4.0 µM | Overlapping effective and nontoxic range ([2]; inhibits with minimal or no toxicity to synovium or cartilage, overlapping range if effective in more than one assay): 0.24 to 15.2 µM | Effective against NF κβ (p<0.05) (NF-κB [3]): 0.23 to 15.3 µM | Effective range against NFkB (NF-κB [3]): ≥ 0.95 µM | Non-toxic range (Synovial) (SW982): 0.028 to 0.25 µM | Effective range against MMP-13 (MMP-13): ≥ 0.24 µM

CN1CC[C@]23c4c5ccc(O)c4O[C@H]2[C@@H](O)C=C[C@H]3[C@H]1C5 [Morphine]
Weight bearing, hours after dosing with significant difference (MIA rat model of OA; day 14): 1 h | Weight bearing, hours after dosing with significant difference (MIA rat model of OA; day 21, BL baseline): BL, 1, 3 | Weight bearing, hours with significant effect (MMT/MCLT rat model of OA [4]; day 7): 1 h | Weight bearing, hours with significant effect (MMT/MCLT rat model of OA [4]; day 21): 3,5 h | Bone score (MMT/MCLT rat model of OA [5]; mean): 3.63 | Depth ratio any matrix change, mean (MMT/MCLT rat model of OA [5]; mean): 0.34 | Depth ratio any matrix change, zone 2 (MMT/MCLT rat model of OA [5]; mean): 0.11 | Femoral cartilage degeneration score (MMT/MCLT rat model of OA [5]; mean): 2.33 and 2.33 ± 0.66 | Tibial cartilage degeneration score, 3-zone total (MMT/MCLT rat model of OA [5]; mean): 6.21 | Tibial cartilage degeneration score, zone 1 (MMT/MCLT rat model of OA [5]; mean): 4.25 | Tibial cartilage degeneration score, zone 2 (MMT/MCLT rat model of OA [5]; mean): 1.92 | Tibial cartilage degeneration score, zone 3 (MMT/MCLT rat model of OA [5]; mean): 0.04 | Tibial cartilage degeneration width, significant (MMT/MCLT rat model of OA [5]; mean): 666.67 µm | Tibial cartilage degeneration width, total (MMT/MCLT rat model of OA [5]; mean): 1279.17 µm | Tibial osteophyte measure (MMT/MCLT rat model of OA [5]; mean): 573.75 µm | Tibial osteophyte score (MMT/MCLT rat model of OA [5]; mean): 4.42 | Total joint score (MMT/MCLT rat model of OA [5]; mean): 12.96 and 12.96 ± 0.89 | Total joint score w/o femur (MMT/MCLT rat model of OA [5]; mean): 10.63 | % decrease, bone score (MMT/MCLT rat model of OA [5]; vs saline group): -12% | % decrease, depth ratio mean (MMT/MCLT rat model of OA [5]; vs saline group): 5% | % decrease, depth ratio zone 2 (MMT/MCLT rat model of OA [5]; vs saline group): 42% | % decrease, femoral cartilage degeneration score (MMT/MCLT rat model of OA [5]; vs saline group): -27% | % decrease, osteophyte measure (MMT/MCLT rat model of OA [5]; vs saline group): -12% | % decrease, osteophyte score (MMT/MCLT rat model of OA [5]; vs saline group): -13% | % decrease, significant degeneration width (MMT/MCLT rat model of OA [5]; vs saline group): 8% | % decrease, tibial score 3-zone total (MMT/MCLT rat model of OA [5]; vs saline group): 5% | % decrease, tibial score zone 1 (MMT/MCLT rat model of OA [5]; vs saline group): 1% | % decrease, tibial score zone 2 (MMT/MCLT rat model of OA [5]; vs saline group): 13% | % decrease, tibial score zone 3 (MMT/MCLT rat model of OA [5]; vs saline group): 0% | % decrease, total degeneration width (MMT/MCLT rat model of OA [5]; vs saline group): 3% | % decrease, total joint score (MMT/MCLT rat model of OA [5]; vs saline group): -5% | % decrease, total joint score w/o femur (MMT/MCLT rat model of OA [5]; vs saline group): -2%

COc1ccc(/C=C/c2ccccc2F)cc1 [NF-κB activation inhibitor IV, (E)-2-fluoro-4′-methoxystilbene]
fold more potent than resveratrol at inhibiting NF-κB (NF-κB [6]): Experimentally used as an anti-inflammatory but not an antioxidant 130-fold more potent than resveratrol at inhibiting NF-κB [94]
